Laboratory results as given in article PMC11574108, “4-Furanylvinylquinoline derivative as a new scaffold for the design of oxidative stress initiator and glucose transporter inhibitor drugs” (Scientific Reports, 2024).

How the values were obtained:
HCT 116 p53+/+ = assay: Monolayer antiproliferative MTS assay; assay type: cell-based, human; settings: 2D monolayer
Source text: (§1) The human colon carcinoma cell line HCT 116 with wild-type p53 (p53^+/+) and the human glioblastoma cell line U-251 were obtained from ATCC, while the HCT 116 with a p53 deletion (p53^−/−) was kindly provided by Prof. M. Rusin from the Maria Sklodowska-Curie Memorial Cancer Center and Institute of Oncology in Gliwice, Poland. The human chronic myelogenous leukaemia cell line K562 and the normal human cell dermal fibroblast cell line NHDF were purchased from Sigma-Aldrich and PromoCell, respectively. Both the HCT 116 and U-251 cell lines were cultured in Dulbecco’s modified Eagle’s medium (DMEM) supplemented with 10% inactivated foetal bovine serum (FBS). The DMEM for the NHDF contained 15% non-inactivated FBS. K562 cells were cultured in RPMI medium completed by 10% inactivated FBS. Additionally, the media were supplemented with antibiotics (streptomycin and penicillin – 1% v/v; Sigma-Aldrich). The cell culture was conducted in 75 cm^2 flasks (Nunc) under standard conditions (37 °C, 5% CO2 humidified atmosphere). Furthermore, the cell lines were frequently tested for mycoplasma using the qRT-PCR technique with specific Mycoplasma primers to confirm the lack of contamination.
(§2) The cells were seeded in 96-well plates (Nunc) with 5,000 or 4,000 cells per well for the cancer cells and NHDF, respectively, and incubated under standard conditions at 37 °C overnight. The culture media were then changed for freshly prepared solutions of the tested compounds in various concentrations. After 72-h incubation the antiproliferative assay was carried out as follows: the solutions of the compounds were changed in each well to 100 µL DMEM without phenol red and 20 µL of CellTiter 96 AQueous One Solution-MTS (Promega). The plates were incubated for 1 h at 37 °C, and the absorbance was then measured at 490 nm using a multi-plate reader (Synergy 4, BioTek). The experiment for each sample was repeated at least three times.
(§3) Additionally, the compounds were also tested for their cytotoxicity against normal cells – human dermal fibroblasts (NHDF).

HCT 116 p53-/- = assay: Monolayer antiproliferative MTS assay; assay type: cell-based, human; settings: 2D monolayer
Source text: as §1, §2, §3

NHDF = assay: Monolayer MTS cytotoxicity against normal cells; assay type: cell-based; settings: NHDF, normal human dermal fibroblasts, 72-h incubation
Source text: as §1, §2, §3

U-251 = assay: Monolayer antiproliferative MTS assay; assay type: cell-based, human
Source text: as §1
as §2, with “times. The results are presented as the half-maximal inhibitory concentration (IC50) values, which were estimated in comparison to untreated cells (control) and calculated using GraphPad Prism v.8.0 (USA).” for “times.”
(§4) However, the antiproliferative activity of derivative 13 with furan a ring was surprising. […] For this purpose, we selected two pancreatic cancer cell lines: AsPC-1, which is characterised by a deletion of the p53 protein[20] and PANC-1, which carries an R273H mutation. This mutation also occurred in the glioblastoma U-251 cell line[22],[23]. An additional non-adherent line that carries the TP53 mutation that results in the absence of p53 is the K562 leukemic cell line[24]. […] Moreover, 13 was selective toward […], as indicated by its SI values (3.35–9.41). Among all of the tested cell lines, the highest activity of the compound was found against the HCT 116 cells with the wild-type p53 protein (0.069 µM). […] The p53 protein also interacts with the metabolic pathways that are associated with glucose transport[25] as well as small molecules. In light of the above-mentioned facts, we also determined the cytotoxicity of the GLUT inhibitor BAY-876, which is based on a quinoline scaffold. […] Furthermore, BAY-876 was also toxic to normal cells.

AsPC-1 = assay: Monolayer antiproliferative MTS assay; assay type: cell-based, human; settings: 2D monolayer
Method: as §2, with “times. The results are presented as the half-maximal inhibitory concentration (IC50) values, which were estimated in comparison to untreated cells (control) and calculated using GraphPad Prism v.8.0 (USA).” for “times.”
as §4

PANC-1 = assay: Monolayer antiproliferative MTS assay; assay type: cell-based, human; settings: 2D monolayer
Method: as §2, with “times. The results are presented as the half-maximal inhibitory concentration (IC50) values, which were estimated in comparison to untreated cells (control) and calculated using GraphPad Prism v.8.0 (USA).” for “times.”
as §4

GLUT-1 = assay: qRT-PCR, GLUT-1 mRNA expression; assay type: cell-based, human; settings: HCT 116 p53-/-, 24 and 48 h
Method: The cells were seeded in 35 mm Petri dishes at a density of 500,000 cells and incubated at 37 °C for 24 h. The total RNA was isolated after incubation with solutions of 13 (0.5 µM and 1.0 µM) for 24 h and 48 h, respectively. The isolation from the samples was carried out according to a TRIzol™ Reagent protocol (Thermo Fisher Scientific). Synthesis of cDNA was performed with 2 µg of total RNA using a GoScript™ Reverse Transcriptase kit (Promega) with Oligo(dT)23 Primers. Real-Time PCR was carried out using a CFX96 Touch™ Real-Time PCR Detection System (Bio-Rad) in 10 µL reaction volume. Each sample contained SsoAdvanced™ Universal SYBR Green Supermix (Bio Rad), a specific primer pair mix (0.5 µM each), and 1 µL of cDNA. […] The obtained data were analysed based on a comparison of the expression of the target genes and normalized to a reference gene (GAPDH) using the Livak-Schmittgen (2^−ΔΔCT) method. […]
To verify the effect of derivative 13 on glucose transporters at the mRNA level, the expression of the genes encoding the best-characterised glucose transporters in cells was quantified in real-time. In addition to GLUT-1, the effect of the tested derivative on changes in the expression of GLUT-3 and GLUT-4 was also evaluated (Fig. 8). […]

[1] = Homo sapiens, HCT-116, 72 h, MTS, 72-h incubation

Cc1c(NC(=O)c2cc(C(N)=O)nc3cc(F)ccc23)c(C(F)(F)F)nn1Cc1ccc(C#N)cc1 [BAY-876]
SI (selectivity index) HCT 116 p53+/+ (HCT 116 p53+/+; relative to NHDF): 2.53
IC50 (HCT 116 p53+/+; [1]): 1710 ± 270 nM
SI (selectivity index) HCT 116 p53-/- (HCT 116 p53-/-; relative to NHDF): 0.40
IC50 (HCT 116 p53-/-; [1]): 10800 ± 810 nM
IC50 (NHDF): 4330 ± 480 nM
SI (selectivity index) U-251 (U-251; 2D monolayer, relative to NHDF): < 0.17
IC50 (U-251; Homo sapiens, U-251, 72 h, 2D monolayer, MTS, 72-h incubation): > 25000 nM
activity in U-251 (U-251; at 25 µM): not active
SI (selectivity index) AsPC-1 (AsPC-1; relative to NHDF): 27.06
IC50 (AsPC-1; Homo sapiens, ASPC1, 72 h, MTS, 72-h incubation): 160 ± 10 nM
SI (selectivity index) PANC-1 (PANC-1; relative to NHDF): 123.71
IC50 (PANC-1; Homo sapiens, PANC-1, 72 h, MTS, 72-h incubation): 35 ± 4 nM
GLUT-1 mRNA level vs control (GLUT-1): increased its expression
